According to publication PMC9562341, “AI protein structure prediction-based modeling and mutagenesis of a protostome receptor and peptide ligands reveal key residues for their interaction” (The Journal of Biological Chemistry, 2022):
“Also recorded” adds a separate entry of the source. Where two headings read alike, the source gives them in different places. Where no end group is shown, it is not given here.

Key:
Format in all cases: cell-based
[1] = target: T1, ALKR (Aplysia leucokinin-like peptide receptor) (Aplysia californica, UniProt A0A977Q7Q2); assay: IP1 accumulation assay, CHO-K1 cells transfected with ALKR; conditions: for EC50: CHO-K1 transiently transfected with ALKR, no promiscuous Gαq, ALK1 n = 13, ALK2 n = 4, others n = 3; for Activation of ALKR (in words): IP1 accumulation in CHO-K1 transfected with ALKR; for Active (√ active / × not active): ALKR, tick or cross in column Active (EC50)
T1 sequence (A0A977Q7Q2 1-429): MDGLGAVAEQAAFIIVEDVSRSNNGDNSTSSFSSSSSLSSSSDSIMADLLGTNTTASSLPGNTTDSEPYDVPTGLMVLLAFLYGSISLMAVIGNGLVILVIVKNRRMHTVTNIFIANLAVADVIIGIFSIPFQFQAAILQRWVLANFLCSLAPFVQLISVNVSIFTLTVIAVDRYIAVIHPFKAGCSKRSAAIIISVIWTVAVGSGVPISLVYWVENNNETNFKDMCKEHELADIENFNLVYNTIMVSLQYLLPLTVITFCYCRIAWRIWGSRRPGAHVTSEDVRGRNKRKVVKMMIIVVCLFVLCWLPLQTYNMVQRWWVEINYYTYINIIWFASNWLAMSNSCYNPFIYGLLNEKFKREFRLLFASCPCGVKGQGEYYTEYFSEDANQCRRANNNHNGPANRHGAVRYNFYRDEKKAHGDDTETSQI
Excerpt: To examine whether the native ALKs could activate the putative ALKR, we expressed the ALKR in Chinese hamster ovary K1 (CHO-K1) cells and examined ALK-mediated changes in the concentration of inositol monophosphate (IP1), a degradation product of the second messenger (inositol trisphosphate) in the Gq signaling pathway upon ligand-induced activation ([88]) (Figs. 4 and S5). […] All endogenous ALK peptides could activate ALKR in a dose-dependent manner (Fig. 4, A–C). […] The lowest EC50 values were for ALK8 (EC50 = 10 nM) and ALK9 (EC50 = 10 nM). The EC50 values for ALK1, ALK2, ALK3, ALK4, ALK5, ALK10, ALK13 were slightly higher than that of ALK9, but there was no statistically significant difference between them (Table S5).
(§1) IP1 accumulation assay measures concentration of IP1 ([88]), that is hydrolyzed from the second messenger, inositol trisphosphate, generated by Gαq pathway when GPCR expressed in CHO-K1 cells is activated by an appropriate ligand. We note two reasons that we selected mammalian CHO-K1 cells for assays for ligand-receptor (GPCR) activity: (1) there are no established molluscan cell lines available; (2) CHO-K1 cells have been extensively utilized not only for vertebrate GPCRs (e.g., ([97])) but also for invertebrate/protostome GPCRs, including other molluscs ([9], [11], [73]), annelids ([8]), jellyfish ([98]), Caenorrhabditis elegans ([99]), and arthropods ([76], [78], [79], [80]). Given that LKRs are only present in protostomes ([6], [7], [66], [67]), an additional advantage of using mammalian cells to assay ligand-receptor activity is that the effects of a possible native LKR in protostome cell lines could be excluded.
(§2) In order to express the Aplysia putative receptor transiently in CHO-K1, the cDNA was cloned into the mammalian expression vector pcDNA3.1(+). […] Transfection experiments were performed when the cells were grown to 70 to 90% confluence. For the ALKR, in each dish (60-mm diameter), 4 μg of the putative receptor plasmids [in pcDNA3.1(+)] were mixed with 400 μl of Opti-MEM (Gibco, 11058021), followed by the addition of 15 μl of Turbofect (Thermo Fisher Scientific, R0531). […] Thus, 3 μg of the putative receptor plasmids [in pcDNA3.1(+)] and 3 μg of promiscuous Gαq protein ([89]) [in pcDNA3.1(+)] were cotransfected in the above procedure for the Anopheles LKR ([8], [10]). The CHO-K1 cells with the reagents added above were mixed gently and incubated at room temperature for 15 min. The DNA/Turbofect mixture dropwise was then added to the dish, and the cells were incubated at 37 °C in 5% CO2 overnight. The next day, the cells were trypsinized and reseeded in opaque white 96-well half-area (Corning, 3688) or 384-well tissue culture–treated plates (Corning, 3570) at a density of 20,000 cells/well in F-12K and 10% FBS and incubated at 37 °C in 5% CO2 overnight. On the third day, the activation of the receptors was detected by monitoring IP1 accumulation using IP1 detection kit (Cisbio, 62IPAPEB) with a Tecan Spark plate reader. Except for using 0.5 × reagents for the anti-IP1-cryptate and IP1-d2 reagents, all other procedures were performed in accordance with the IP1 detection kit manufacturer’s instructions.

[2] = target: ALKR L157Q (Aplysia californica, UniProt A0A977Q7Q2, L157Q); assay: IP1 accumulation assay, ALKR mutant L157Q in CHO-K1; conditions: mutant without FLAG tag, n = 3
Excerpt: as §1
(§3) In order to express the Aplysia putative receptor transiently in CHO-K1, the cDNA was cloned into the mammalian expression vector pcDNA3.1(+). […] Transfection experiments were performed when the cells were grown to 70 to 90% confluence. […] On the third day, the activation of the receptors was detected by monitoring IP1 accumulation using IP1 detection kit (Cisbio, 62IPAPEB) with a Tecan Spark plate reader. […]

[3] = target: ALKR Y213A (Aplysia californica, UniProt A0A977Q7Q2, Y213A); assay: IP1 accumulation assay, ALKR mutant Y213A in CHO-K1
Excerpt: as §1, §3

[4] = target: ALKR I329Q (Aplysia californica, UniProt A0A977Q7Q2, I329Q); assay: IP1 accumulation assay, ALKR mutant I329Q in CHO-K1
Excerpt: as §1, §3

[5] = target: ALKR Q133A (Aplysia californica, UniProt A0A977Q7Q2, Q133A); assay: IP1 accumulation assay, ALKR mutant Q133A in CHO-K1
Excerpt: as §1, §3

[6] = target: ALKR Q317A (Aplysia californica, UniProt A0A977Q7Q2, Q317A); assay: IP1 accumulation assay, ALKR mutant Q317A in CHO-K1
Excerpt: as §1, §3

[7] = target: ALKR Q317N (Aplysia californica, UniProt A0A977Q7Q2, Q317N); assay: IP1 accumulation assay, ALKR mutant Q317N in CHO-K1
Excerpt: as §1, §3

[8] = target: T2, Anopheles LKR (Anopheles stephensi, UniProt Q694V6); assay: IP1 accumulation assay, CHO-K1 cells cotransfected with Anopheles LKR and promiscuous Gαq; conditions: log scale, mean ± SEM, n = 3
T2 sequence (Q694V6 1-573): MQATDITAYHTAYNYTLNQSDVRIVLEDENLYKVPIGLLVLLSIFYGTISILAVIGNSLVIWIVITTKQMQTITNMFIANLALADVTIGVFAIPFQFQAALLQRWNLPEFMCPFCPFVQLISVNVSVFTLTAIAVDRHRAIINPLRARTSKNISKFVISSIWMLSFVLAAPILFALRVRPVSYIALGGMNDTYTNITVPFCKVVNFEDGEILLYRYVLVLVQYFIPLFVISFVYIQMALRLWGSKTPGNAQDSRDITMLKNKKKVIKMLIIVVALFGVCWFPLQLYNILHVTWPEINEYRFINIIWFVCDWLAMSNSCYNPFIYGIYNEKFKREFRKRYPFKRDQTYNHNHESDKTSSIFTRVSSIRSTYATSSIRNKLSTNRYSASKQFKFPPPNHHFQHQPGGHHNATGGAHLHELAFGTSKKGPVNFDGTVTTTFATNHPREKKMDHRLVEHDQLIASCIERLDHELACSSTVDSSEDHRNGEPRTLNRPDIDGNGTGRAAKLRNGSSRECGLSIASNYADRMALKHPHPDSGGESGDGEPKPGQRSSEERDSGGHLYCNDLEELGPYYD
Excerpt: Considering the similarity of leucokinin-like peptides in different species (Fig. 1), we sought to evaluate cross-activity between leucokinin peptides and their receptors in different species. We selected A. stephensi because it is a pest, and this would also provide an opportunity to determine if Aplysia LKs could be potentially used as insecticides ([67]). […] Thus, we cotransfected promiscuous Gαq with the Anopheles receptor, whereas there was no cotransfection of promiscuous Gαq for ALKR.
as §1
as §2, with “Except for using 0.5 × reagents for the anti-IP1-cryptate and IP1-d2 reagents, all other procedures were performed in accordance with the IP1 detection kit manufacturer’s instructions.” left out

[9] = target: ALKR N314A (Aplysia californica, UniProt A0A977Q7Q2, N314A); assay: IP1 accumulation assay, ALKR mutant N314A in CHO-K1
Excerpt: as §1, §3

[10] = log scale, IP1 detection kit (Cisbio), mean ± SEM, inactive: greater than highest concentration tested, read-out: log [EC50] on ALKR (converted)
[11] = IP1 accumulation, average, rounded to two significant figures, read-out: EC50 on ALKR

ALKR L157Q, sequence (A0A977Q7Q2 entry or part of it L157Q): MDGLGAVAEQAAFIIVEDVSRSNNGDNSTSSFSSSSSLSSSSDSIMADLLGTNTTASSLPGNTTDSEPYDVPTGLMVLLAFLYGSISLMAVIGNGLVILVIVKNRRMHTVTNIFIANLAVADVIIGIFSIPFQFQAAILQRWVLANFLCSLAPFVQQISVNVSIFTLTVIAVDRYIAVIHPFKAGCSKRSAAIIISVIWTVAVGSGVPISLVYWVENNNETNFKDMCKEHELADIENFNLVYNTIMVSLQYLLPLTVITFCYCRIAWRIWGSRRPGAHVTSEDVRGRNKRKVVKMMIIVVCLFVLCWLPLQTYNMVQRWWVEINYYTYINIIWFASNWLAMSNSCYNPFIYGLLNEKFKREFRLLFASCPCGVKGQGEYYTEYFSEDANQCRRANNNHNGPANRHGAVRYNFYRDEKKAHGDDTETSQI
ALKR I329Q, sequence (A0A977Q7Q2 entry or part of it I329Q): as the sequence (A0A977Q7Q2 entry or part of it L157Q) above, with Q157L, I329Q counted along it
ALKR Y213A, sequence (A0A977Q7Q2 entry or part of it Y213A): as the sequence (A0A977Q7Q2 entry or part of it L157Q) above, with Q157L, Y213A counted along it
ALKR N314A, sequence (A0A977Q7Q2 entry or part of it N314A): as the sequence (A0A977Q7Q2 entry or part of it L157Q) above, with Q157L, N314A counted along it
ALKR Q317A, sequence (A0A977Q7Q2 entry or part of it Q317A): as the sequence (A0A977Q7Q2 entry or part of it L157Q) above, with Q157L, Q317A counted along it
ALKR Q317N, sequence (A0A977Q7Q2 entry or part of it Q317N): as the sequence (A0A977Q7Q2 entry or part of it L157Q) above, with Q157L, Q317N counted along it
ALKR Q133A, sequence (A0A977Q7Q2 entry or part of it Q133A): as the sequence (A0A977Q7Q2 entry or part of it L157Q) above, with Q133A, Q157L counted along it

**Q.** Which EC50 [1, 10] does the source give for PAFASWS-NH2 [ALK1_A4] here?
**A.** 51.3 nM

**Q.** Which EC50 [1, 10] does the source give for PAFHAWG-NH2 [ALK10] here?
**A.** 21.4 nM

**Q.** PAFHAWS-NH2 [ALK2] was tested. Which EC50 [1, 10] did it give?
**A.** 21.4 nM

**Q.** PAFHSAS-NH2 [ALK1_A6] was tested. Which EC50 [1, 11] did it give?
**A.** > 10000 nM

**Q.** And the “Activation of ALKR (in words)” value [1]?
**A.** not active

**Q.** And the “Active (√ active / × not active)” value ([1]; IP1 accumulation)?
**A.** ×

**Q.** And the EC50 [1, 10]?
**A.** > 10000 nM

**Q.** How did the EC50 [1, 10] turn out when PAFHSWA-NH2 [ALK1_A7] was run?
**A.** 28.2 nM

**Q.** Which results are given for PAFHSWS-NH2 [ALK1]?
**A.** EC50 ([2]; EC50 on ALKR L157Q): 77 nM; EC50 ([2]; log [EC50] on ALKR L157Q, log scale, mean ± SEM): 70.8 nM; EC50 [3]: 372 nM; EC50 [4]: 6760 nM; EC50 [5]: 77.6 nM; EC50 [6]: 56.2 nM; EC50 [7]: 25.1 nM; Activation of ALKR (in words) [1]: active; EC50 [1, 10]: 13.8 nM; EC50 [8]: 282 nM; EC50 [9]: 110 nM

**Q.** Which EC50 [1, 11] does the source give for PAFHSWS-OH [ALK1-OH] here?
**A.** > 10000 nM

**Q.** What about the “Activation of ALKR (in words)” value [1] of the same substance?
**A.** not active; also recorded: not able to activate

**Q.** What about the EC50 [1, 10] of the same substance?
**A.** > 10000 nM

**Q.** For PAFHSWS-OH [ALK1_nG], which “Active (√ active / × not active)” value ([1]; IP1 accumulation) is on record?
**A.** ×

**Q.** How did the EC50 [1, 10] turn out when PAFNAWG-NH2 [ALK8] was run?
**A.** 10.2 nM

**Q.** And the EC50 [8]?
**A.** 40.7 nM

**Q.** With PAFQAWS-NH2 [ALK13] as the substance, how does the EC50 [1, 10] read?
**A.** 15.1 nM

**Q.** For PAFSAWN-NH2 [ALK5], which EC50 [1, 10] is on record?
**A.** 10.5 nM

**Q.** For PAFSAWS-NH2 [ALK3], which EC50 [1, 10] is on record?
**A.** 11.7 nM

**Q.** How did the EC50 [1, 10] turn out when PAFSPWS-NH2 [ALK9] was run?
**A.** 9.77 nM

**Q.** And the EC50 [8]?
**A.** 724 nM

**Q.** For PRFHAWS-NH2 [ALK7], which EC50 [1, 10] is on record?
**A.** 91.2 nM

**Q.** SEKQPAFHAWS-NH2 [ALK6] was tested. Which EC50 [1, 10] did it give?
**A.** 31.6 nM
